Experimental data: a melting point compilation (Tetko et al.; mined from patent text by program, amines drawn as free bases though some values may be those of a salt)

Cc1ccc(-c2c(-c3ccc(S(C)(=O)=O)cc3)cnn(-c3cccc(Cl)c3)c2=O)cc1 showed a melting point of 222 to 224 °C.
With O=C(Cl)c1cc(Oc2ccc(C(F)(F)F)cc2Cl)ccc1[N+](=O)[O-] the melting point was 118 to 120 °C.
For CCOC(=O)c1cn2c3c(c(F)c(Cl)cc3c1=O)OCC2C (stereo not given), the melting point was 263 to 264 °C.
Compound CN(CC(=O)N1c2ccccc2N(Cc2ccccc2)C(=O)[C@H]2CCC[C@H]21)Cc1ccccc1 (relative stereo) has a melting point of 75 to 78 °C.
Work on CCOC(=O)c1ncc2[nH]c3cccc(OCc4cccc(F)c4)c3c2c1COC yielded a melting point of 188 °C.
In the case of CC1CCc2nc(=O)c(-c3ccccc3)cn21 (stereo not given), the melting point is reported as 178 °C.
Work on CCNC(=O)Nc1nc2nc(NCCN(CC)CC)ncc2cc1-c1c(Cl)cccc1Cl yielded a melting point of 86.5 to 89.5 °C.
With Nc1ncccc1-c1nc2cc(Br)cnc2n1-c1ccc(CNC(=O)c2ccccc2)cc1 the melting point was 195 to 197 °C.
In the case of Cc1ccc(C[C@@H]2CN(C(=O)/C=C/c3ccc(C(F)(F)F)cc3)CCN2C(=O)c2cc(C(F)(F)F)cc(C(F)(F)F)c2)cc1C, the melting point is reported as 74 to 76 °C.
With COc1cccc(C(=O)OCC2(COC(=O)c3cccc(OC)c3)c3ccccc3-c3ccccc32)c1 the melting point was 129 to 130 °C.
For O=C(CCCCC1CCN(Cc2ccccc2)CC1)c1ccc(N2CCCC2)cc1, the melting point was 129 to 131 °C.
In the case of COc1ccc(-n2c(=O)[nH]c3c(C(N)=O)nc(-c4cccc(O)c4)nc32)c(F)c1, the melting point is reported as greater than 260 °C.
In the case of CSc1nn2c(N)cc(Cl)nc2c1S(=O)(=O)c1ccccc1, the melting point is reported as greater than 230 °C.
With Cc1[nH]c(C(=O)N2CC=CN2)c(C)c1-c1nc2ccc(C(=O)c3ccccc3)cc2[nH]1 the melting point was 148 to 150 °C.
In the case of C=CC(O)(C(CCCCOc1ccccc1)n1cncn1)C(C)(C)C (stereo not given), the melting point is reported as 66 to 69 °C.
In the case of O=C(O)CCc1c(C(=O)O)[nH]c2cc(I)ccc12, the melting point is reported as 230 to 232 °C.
With CC(C)(C)[C@@H]1OC(=O)[C@@H]2[C@H]1C2(C)C the melting point was 113 °C.
CN(C)C=Nc1ccc(-c2ccc(C(F)(F)F)cc2)cn1 showed a melting point of 154 °C.
With COC(=O)c1nnn(Cc2ccccc2F)c1C(=O)OC the melting point was 203 to 205 °C.
CC(=O)Oc1ccc(C=Cc2cc(OC(C)=O)c(OC(C)=O)c(OC(C)=O)c2)cc1 gave a melting point of 162 to 163 °C.
In the case of CCOc1ccc([N+](=O)[O-])c(NC2CCOCC2)c1, the melting point is reported as 117 °C.
Compound Cc1cccnc1C1CC(C)(C)Oc2ccccc21 (stereo not given) has a melting point of 100 to 102 °C.
Cc1ccccc1S(=O)(=O)Nc1onc(C)c1Br gave a melting point of 93 to 96 °C.
COc1nc(C)cnc1NS(=O)(=O)c1ccccc1-c1ccc(CC(C)(C)C(=O)O)cc1 gave a melting point of 202 to 204 °C.
CC1Cc2cc(OCc3ccccc3)c(Cl)c(Cl)c2C1=O (stereo not given) showed a melting point of 153 to 155 °C.
Compound CC(C(=O)O)c1ccc(N)c(C(F)(F)F)c1 (stereo not given) has a melting point of 73 to 75 °C.
In the case of COC(C)=Nc1cccc(O)n1, the melting point is reported as 128 to 129 °C.
For Cc1nc(C(=O)NCCO[N+](=O)[O-])co1, the melting point was 106 to 108 °C.
For CC(C)Nc1nc(N)nc(-c2ccccc2)c1-c1ccc(=O)n(C(C)C)n1, the melting point was 234 to 236 °C.
COc1ccc(C(=O)CC(c2cccs2)C(C)(C)[N+](=O)[O-])cc1 (stereo not given) gave a melting point of 90 °C.
Compound O=C(O)c1cn(O)c2ccc3[nH]c(=O)sc3c2c1=O has a melting point greater than 300 °C.
c1ccc(CNc2ccc3ccccc3c2-c2c(P(c3ccccc3)c3ccccc3)ccc3ccccc23)cc1 showed a melting point of 70.1 °C.
CC(C)(C)c1cc(C(=O)O)ccc1OCc1ccccc1 gave a melting point of 213 to 214 °C.
For Fc1ccc(Nc2nc(N/N=C/c3cccc4ccccc34)nc(N3CCOCC3)n2)cc1, the melting point was 220 °C.
In the case of CCOC(=O)c1ccccc1-n1c(=O)[nH]c2ccccc2c1=O, the melting point is reported as 196 to 197 °C.
With NC(Cc1ccc(O)cc1)CN1CCN(c2ccccc2)CC1 (stereo not given) the melting point was greater than 270 °C.
Cc1nn(C)c(C)c1S(=O)(=O)N1CCC2(CC1)CSC1=C(O2)c2ccccc2C(=O)C1=O gave a melting point of 273 to 275 °C.
CCCCCCCC(=O)CCC(C)=O gave a melting point of 40 to 41 °C.
Work on CN1CC[C@@H](c2c(O)cc(O)c3c(=O)cc(-c4cccc(F)c4)oc23)[C@@H]1CO yielded a melting point of 218 to 220 °C.
For C[C@H](Cn1cnnn1)n1cnc2cc3c(=O)n(C4CC4)nnc3cc2c1=O, the melting point was 245 to 246 °C.
Cc1nc2ccnc(-c3ccccc3)n2n1 showed a melting point of 68 to 71 °C.
Work on CC[C@@H](C=O)NC(=O)OC(C)(C)C yielded a melting point of 39 to 43 °C.
Compound Oc1cccc2c1CC1C(C2)C1(Cl)Cl (stereo not given) has a melting point of 89 to 93 °C.
Compound Cc1nccc2[nH]c(=O)c(C#N)cc12 has a melting point of 275 to 277 °C.
Work on CCCc1nc2nccc(C)c2[nH]1 yielded a melting point of 110 to 112 °C.
With COc1c(CC#N)cccc1CC#N the melting point was 58 to 59.5 °C.
For COC(=O)CCc1cnoc1-c1ccc(Cl)s1, the melting point was 34 to 35 °C.
COc1c(S(=O)(=O)NCc2ccc(Cl)cc2)cc(Br)c2ccc(C)nc12 gave a melting point of 108 to 110 °C.
C=CCc1c(O)c(C(C)=O)cc(C(C)=O)c1O gave a melting point of 84 to 86 °C.
In the case of CCC1CCc2c(sc3cc(N)ccc3c2=O)C1 (stereo not given), the melting point is reported as 187 °C.
For CNc1nc2ccc(C3=NNC(=O)NC3C)cc2s1 (stereo not given), the melting point was 290 to 295 °C.
COc1ccccc1[C@H](c1cccc2ccccc12)[C@@](C)(C#N)C(=O)N1CCN(c2cccc(C(F)(F)F)c2)CC1 gave a melting point of 158 to 162 °C.
CCCCCCC/C=C\CCCCCCCC(O)CCCNC(C)=O (stereo not given) showed a melting point of 50 to 52 °C.
Compound CCc1[nH]nc2c1C(=O)c1c(NC(=O)NN3CCOCC3)cccc1-2 has a melting point of 253 to 254 °C.
Compound COc1cn(-c2ccc(C(F)(F)F)cc2F)nc(-c2ccnn2-c2ccccc2)c1=O has a melting point of 169 to 171 °C.
COc1cc2cn[nH]c(=O)c2cc1OC gave a melting point of 254 to 256 °C.
Work on CC=CCn1c(C)c(CC)c2cnnc(OCc3ccc(F)cc3)c21 yielded a melting point of 78 to 83 °C.
With CC(=O)NC(C)C1=NN(Cc2ccccc2)C(C)NC1=O (stereo not given) the melting point was 196 to 203 °C.
With c1cc(CN2CCOCC2)c(CN2CCOCC2)s1 the melting point was 58 to 60 °C.
With O=C(O)c1ccc(NCC=C(c2ccc(Cl)cc2)c2ccc(Cl)cc2)cc1 the melting point was 231 to 235 °C.
CCn1cc(OS(C)(=O)=O)c(=O)c2ccccc21 gave a melting point of 141 to 143 °C.
In the case of CCOC(=O)C1[C@@H]2[C@@H](O)[C@@H]3O[C@H](c4cccc(OC)c4)OC[C@H]3O[C@H]12 (stereo not given in full), the melting point is reported as 107 °C.
COCCOc1ccc(CCC(=O)NS(=O)(=O)c2ccc(F)cc2)c(Oc2ncc(C(F)(F)F)cc2Cl)c1 showed a melting point of 136 to 138 °C.
With O=C(COc1ccc(Cl)cc1Cl)OCNC(=O)Oc1cccc(Cl)c1 the melting point was 110 °C.
CC1OC(Cn2cncn2)(c2ccc(Cl)cc2Cl)OC1C (single isomer, unassigned; (-)) showed a melting point of 82.5 °C.
O=C(CCc1cccnc1)c1ccccc1 gave a melting point of 86 to 87 °C.
With Nc1ccc(OCC(=O)N2CC=C(c3ccc(F)cc3)CC2)cc1 the melting point was 120 to 122 °C.
In the case of O=C(N[C@@H](Cc1ccccc1)C(=O)On1nnc2ccccc21)OCc1ccccc1, the melting point is reported as 120 to 125 °C.
Cc1cc(F)c2ncc(C(=O)NNc3ccc(Cl)cc3)c(O)c2c1 showed a melting point of 256 to 258 °C.
In the case of CC1(C)Nc2ccccc2-n2cnc(-c3noc(C4CC4)n3)c21, the melting point is reported as 166 to 169 °C.
O=[N+]([O-])c1cnn(-c2c(Cl)cc(C(F)(F)F)c(Cl)c2Cl)c1Br showed a melting point of 97 to 99 °C.
In the case of COc1cc2ncnc(N3CCN(C(=S)Nc4cc(C)cs4)CC3)c2cc1OC, the melting point is reported as 214 to 216 °C.
In the case of CC1(C)CC(=O)CC(=O)N1, the melting point is reported as 183 to 184 °C.
Work on COCCOc1ccc(/C=C(\C)C(=O)NS(=O)(=O)C(F)(F)F)c(Oc2ncc(C(F)(F)F)cc2Cl)c1 yielded a melting point of 146 to 147 °C.
c1ccc(Cc2ncc(-c3ccc4cc(OCc5nnn[nH]5)ccc4c3)o2)cc1 showed a melting point of 227 to 228 °C.
Compound Cc1c(C)c([N+](=O)[O-])c(C)c2c1OC(C)(C)C2c1ccc(F)cc1 (stereo not given) has a melting point of 94 to 95 °C.
With CC(C)COc1ccc(-c2ccc3nnn(Cc4ccc5ncccc5c4)c3n2)cc1F the melting point was 115 to 157 °C.
Compound CC(C)(C)OC(=O)N1CCN(C[C@H](O)Cn2c3ccccc3c3cc(Br)ccc32)CC1 has a melting point of 75 to 85 °C.
In the case of CCCc1ccc(-c2[nH]nc3c2C(=O)c2c(NC(C)=O)cccc2-3)cc1, the melting point is reported as 269 °C.
With CCNc1cncc(C#N)c1 the melting point was 110 °C.
For OC(CCC1CCNCC1)c1cc(C2CCCCC2)nc2ccccc12 (stereo not given), the melting point was 190 to 191 °C.
Work on COC(=O)c1ccnc(NC(=O)C(CSC(C)=O)Cc2ccccc2)c1 (stereo not given) yielded a melting point of 137 to 139 °C.
For Cn1cncc1C(O)(c1ccc(Cl)cc1)c1ccc2c(c1)c(-c1cccc(Cl)c1)nc1nnnn12 (stereo not given), the melting point was 139 °C.
O=c1c2c[nH]c3ccccc3c-2nn1-c1nccs1 showed a melting point greater than 350 °C.
Compound COc1ccc(N2CCOCC2)c2sc(C(=O)NCC(=O)c3csc4ccccc34)nc12 has a melting point of 210 °C.
Oc1c(Br)cc(-c2cccc3sc4c(Br)cccc4c23)cc1Br gave a melting point of 118 to 119 °C.
In the case of CCCCCCc1ccc(-c2ccc(COC(c3ccccc3)(c3ccccc3)c3ccccc3)cc2[N+](=O)[O-])cc1, the melting point is reported as 86 to 87 °C.
For CC(=O)Nc1c(C(=O)c2cc(Cl)ccn2)[nH]c2cc(Cl)ccc12, the melting point was 201 to 202 °C.
N#CC1(c2ccc(OC(F)F)c(OCC3CC3)c2)CCC(=C2SCCCS2)CC1 (stereo not given) gave a melting point of 84 to 85 °C.
For Nc1cc(Oc2ccc(S(=O)(=O)c3ccc(OCc4ccccc4)c(Cl)c3)cc2Cl)c([N+](=O)[O-])cc1O, the melting point was 181 to 184 °C.
Work on Cc1c(-c2ccccc2)oc2c(C(=O)OCCCBr)cccc2c1=O yielded a melting point of 114 to 115 °C.
With COc1ccc(C2=NN(C3CCCC3)C(=O)[C@H]3CC=CC[C@@H]23)cc1OC1CCCC1 (relative stereo) the melting point was 144 to 145 °C.
Compound CS(=O)(=O)c1ncc(F)c(NCc2ccccc2F)n1 has a melting point of 105 to 107 °C.
CC(C)(C)OC(=O)Nc1cc(Sc2ccc3c(C(=O)O)cccc3c2)ncn1 showed a melting point of 208 to 209 °C.
With CCC(=O)c1cnc(C(=O)C(C)C)cn1 the melting point was 70 to 71 °C.
Work on Cc1nc(-c2cccc(F)c2)n(-c2ccc(S(N)(=O)=O)cn2)n1 yielded a melting point of 195 to 196 °C.
With COc1cc(C)c(C(=O)c2c(Cl)cccc2Cl)cc1OC the melting point was 101 to 103 °C.
For CS(=O)(=O)NCCCCCCCCn1cnc2c(N)nc3ccccc3c21, the melting point was 153 to 155 °C.
CN1CCN(c2cccc3c2C[C@H](NC(=O)c2ccccc2OS(C)(=O)=O)CC3)CC1 showed a melting point of 144 to 145 °C.
In the case of CCOCc1nc2c(N)nc3cc(Br)cnc3c2n1CC(C)C, the melting point is reported as 163 to 164 °C.
